Measurements taken from ChEMBL document CHEMBL5316350, “Novel Pyrido[2',1':2,3]imidazo[4,5-c]quinoline Derivative Selectively Poisons Leishmania donovani Bisubunit Topoisomerase 1 to Inhibit the Antimony-Resistant Leishmania Infection in Vivo” (J Med Chem, 2023).
The source made the active and inactive calls. The rule behind the calls is not given here.

Experiments:
Leishmania donovani [1] = experiment: Induction of cell cycle arrest in Leishmania donovani Ag83 promastigotes assessed as decrease in accumulation of cells in S phase at 5 uM measured after 24 hrs by PI staining based flow cytometry (reference value: 18.1%); format: functional; set-up: scale not given: the % may be the effect or the level left
[2] = target: T1, DNA topoisomerase I (Leishmania donovani (strain BPK282A1)) (UniProt E9BRC0); experiment: Inhibition of Leishmania donovani topoisomerase I assessed as DNA intercalation using pBluscript (SK+) DNA as substrate at 20 to 200 uM incubated for 15 mins ethidium bromide staining based UV analysis; settings: dose 20-200 µM
T1 sequence (whole entry): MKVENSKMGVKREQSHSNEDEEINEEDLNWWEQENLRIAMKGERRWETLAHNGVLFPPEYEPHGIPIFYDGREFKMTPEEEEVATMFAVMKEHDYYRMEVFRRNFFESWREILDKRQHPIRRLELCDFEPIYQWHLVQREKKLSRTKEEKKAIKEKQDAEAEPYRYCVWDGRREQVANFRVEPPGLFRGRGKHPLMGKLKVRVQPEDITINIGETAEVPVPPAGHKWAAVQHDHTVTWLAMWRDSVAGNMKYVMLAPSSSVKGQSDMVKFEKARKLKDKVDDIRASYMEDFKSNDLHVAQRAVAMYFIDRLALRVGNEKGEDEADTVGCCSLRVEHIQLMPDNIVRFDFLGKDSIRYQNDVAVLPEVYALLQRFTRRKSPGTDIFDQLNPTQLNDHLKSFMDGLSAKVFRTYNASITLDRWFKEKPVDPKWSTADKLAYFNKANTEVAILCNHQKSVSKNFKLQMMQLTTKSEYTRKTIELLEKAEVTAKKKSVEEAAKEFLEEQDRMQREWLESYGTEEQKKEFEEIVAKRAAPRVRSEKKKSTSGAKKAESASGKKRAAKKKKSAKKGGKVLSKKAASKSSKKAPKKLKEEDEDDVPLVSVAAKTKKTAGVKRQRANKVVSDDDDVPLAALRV

Leishmania donovani [3] = experiment: Induction of cell cycle arrest in Leishmania donovani Ag83 promastigotes assessed as decrease in accumulation of cells in G0/G1 phase at 5 uM measured after 6 hrs by PI staining based flow cytometry (reference value: 65.1%); format: functional; set-up: scale not given: the % may be the effect or the level left
Leishmania donovani [4] = experiment: Induction of cell cycle arrest in Leishmania donovani Ag83 promastigotes assessed as decrease in accumulation of cells in G2/M phase at 5 uM measured after 24 hrs by PI staining based flow cytometry (reference value: 15.1 %); format: functional; set-up: scale not given: the % may be the effect or the level left
[5] = target: T1, DNA topoisomerase I (Leishmania donovani (strain BPK282A1)); experiment: (§1) Inhibition of recombinant Top1 in Antimony resistant Leishmania donovani BHU575 whole cell extract assessed as relaxation of supercoiled pBluescript SK(+) DNA measured by agarose gel electrophoresis analysis; settings: dose 5-50 µM
DNA topoisomerase I = target: T2, DNA topoisomerase I (Leishmania donovani (strain BPK282A1), UniProt E9BRC0); experiment: as §1
T2 sequence (E9BRC0 whole entry): T1 sequence (whole entry)

Leishmania donovani [6] = experiment: Antileishmanial activity against antimony resistant Leishmania donovani BHU575 promastigotes assessed as cell viability by MTT assay; format: functional, organism-based
Leishmania donovani [7] = experiment: Induction of apoptosis in Leishmania donovani BHU575 assessed as DNA break accumulation measured at 5 uM after 6 to 24 hrs by TUNEL staining based assay; format: functional, organism-based; settings: time 6-24 hrs
Leishmania donovani [8] = experiment: Induction of apoptosis in Leishmania donovani BHU575 promastigotes assessed as DNA break accumulation measured at 5 uM after 6 to 24 hrs by TUNEL staining based assay; format: functional, organism-based; settings: time 6-24 hrs
Leishmania donovani [9] = experiment: Induction of cell cycle arrest in antimony resistant Leishmania donovani BHU575 promastigotes assessed as decrease in accumulation of cells in S phase at 5 uM measured after 12 hrs by PI staining based flow cytometry (reference value: 9.8%); format: functional; set-up: scale not given: the % may be the effect or the level left
Leishmania donovani [10] = experiment: Induction of cell cycle arrest in antimony resistant Leishmania donovani BHU575 promastigotes assessed as decrease in accumulation of cells in G2/M phase at 5 uM measured after 12 hrs by PI staining based flow cytometry (reference value: 8.8%); format: functional; set-up: scale not given: the % may be the effect or the level left
Leishmania donovani [11] = experiment: Induction of cell cycle arrest in antimony resistant Leishmania donovani BHU575 promastigotes assessed as decrease in accumulation of cells in G2/M phase at 5 uM measured after 24 hrs by PI staining based flow cytometry (reference value: 8.8%); format: functional; set-up: scale not given: the % may be the effect or the level left
Leishmania donovani [12] = experiment: Antileishmanial activity against Leishmania donovani Ag83 promastigotes infected in BALB/c mouse assessed as reduction of macrophage at 1 to 10 uM infection by propidium iodide staining analysis; format: functional, organism-based; settings: dose 1-10 µM, time 72-96 hrs, TDE = time-dependent effect
Leishmania donovani [13] = experiment: Antileishmanial activity against Leishmania donovani Ag83 promastigotes infected in BALB/c mouse assessed as reduction of amastigote burden in spleen treated after 3 weeks of infection at 5 to 10 mg/kg, ip twice a week for 3 weeks by Giemsa staining stamp-smear based limiting dilution assay; format: functional, organism-based; settings: dose 5-10 mg/kg

In the case of COc1cc(-c2nc3ccccc3c3nc4ccccn4c23)cc(OC)c1OC, the Activity (Leishmania donovani [1]) is reported as 31.5%, the inhibition [2] is reported as “inactive” and the Activity (Leishmania donovani [3]) is reported as 55.3%. For the same molecule, the Activity (Leishmania donovani [4]) was 34.2%, the inhibition [5] was “Dose-Dependent Effect” and the IC50 (DNA topoisomerase I) was 8.75 µM. The EC50 (Leishmania donovani [6]) was 4.8 µM, the Activity (Leishmania donovani [7]) was “Active” and the Activity (Leishmania donovani [8]) was “Active”. It also gave an Activity (Leishmania donovani [9]) of 23.7%, an Activity (Leishmania donovani [10]) of 27.5% and an Activity (Leishmania donovani [11]) of 33.6%. The Activity (Leishmania donovani [12]) was “Tde” and the Activity (Leishmania donovani [13]) was “Active”.
